Usually CC50 stands for the concentration at which the toxic effect on the cells reaches its halfway point.

Read-outs that look alike come from different tables or passages of the source.

Data on 18 molecules can be found in patent US20070191373A1, “Heterocyclic compounds for use in the treatment of viral infections” (priority 2003, published 2007).

In data set [1] the test system is CMV strain Davis. Briefly: CMV strain Davis induced cytopathicity in HEL cells. Format: cell-based, cytomegalovirus (CMV). Particulars: Human betaherpesvirus 5, 168 h, vs untreated control. The method, then: (§1) Products where X═Y═N, Z=Q=O, U═V═CH and R^1, R^4 and R^8 are as given in Tables 1 and 2 below embodying the present invention were tested in vitro in tissue cultures for toxicity and for potent antiviral actions with respect to cytomegalovirus (CMV).
EC50/μM CMV Davis is the drug concentration in μM required to reduce by 50% CMV strain Davis induced cytopathicity in human embryonic lung fibroblast (HEL) cells measured 7 days post infection compared to untreated control.
(§2) Further details of the methodology employed can be found in McGuigan et al. J. Med. Chem., 1999, 42, 4479-4484.
(Protection from cytopathic effect is a common read-out in antiviral testing.)

In data set [2] the test system is CMV strain AD169. Briefly: CMV strain AD169 induced cytopathicity in HEL cells. Format: cell-based, cytomegalovirus (CMV). The note with it: Human betaherpesvirus 5, AD169, 168 h, vs untreated control. The procedure:
as §1
EC50/μm CMV-AD169 is the drug concentration in μM required to reduce by 50% CMV strain AD169 induced cytopathicity in human embryonic lung fibroblast (HEL) cells measured 7 days post infection compared to untreated control.
as §2

A short description of data set [3]: Toxicity in tissue culture, reduction of cell number. The class given is cell-based. Particulars: human, human embryonic lung fibroblast (HEL) cells, concentration reducing cell number by 50%. The procedure: as §1
CC50/μM is the compound concentration required to reduce the cell number by 50%.
as §2

Setting [4] is: Table 1, 7 days post infection, read-out: EC50/μM 1 CMV Davis.
[5] abbreviates: Table 2, 7 days post infection, read-out: EC50/μM 2 CMV Davis.

Regarding `CCCCCCCc1cc2cn(C(CC)CC)c(=O)nc2o1` [Cf2190, 6-Heptyl-3-(1-ethyl-propyl)-3H-furo[2,3-d]pyrimidin-2-one], the EC50 in data set [1] (setting [4]) was determined as 50 µM; in data set [2] (Table 1, 7 days post infection) it was 20 µM. In data set [3] (Table 1), the cytotoxic concentration (CC50) is more than 200 µM.
As to `CCCCCCCCCCc1cc2cnc(OC3CCCCC3)nc2o1` [Cf2294], the EC50 in data set [1] (setting [5]) came to 16 µM; in data set [2] (Table 2, 7 days post infection), 12 µM. Further, the CC50 in data set [3] (Table 2) is more than 200 µM.
The corresponding values for `CCCCCCCCCCc1cc2cnc(OCc3ccc(C)cc3)nc2o1` [Cf2313, 6-Decyl-2-(4-methylbenzyloxy)-3H-furo[2,3-d]pyrimidine] are 3.9 µM, 10.5 µM and more than 200 µM.
Consider `CCCCCCc1cc2cnc(OCCCC)nc2o1` [Cf2346, 2-Butyloxy-6-hexyl-furo[2,3-d]pyrimidine], for which the EC50 was found to be 3 µM in data set [1] (setting [5]) and 8 µM in data set [2] (Table 2, 7 days post infection).
As for `CCCCc1cc2cn(C(CC)CC)c(=O)nc2o1` [Cf2194, 6-Butyl-3-(1-ethyl-propyl)-3H-furo[2,3-d]pyrimidin-2-one], the EC50 in data set [1] (setting [4]) is more than 200 µM; in data set [2] (Table 1, 7 days post infection) it was more than 50 µM. This molecule registered a cytotoxic concentration (CC50) in data set [3] (Table 1) of more than 200 µM.
For the molecule `CCCCCCCc1cc2cn(C3CCCC3)c(=O)nc2o1` [Cf2160], the EC50 in data set [1] (setting [4]) was determined as 4 µM; in data set [2] (Table 1, 7 days post infection), 5 µM. The molecule also yielded a CC50 in data set [3] (Table 1) of 194 µM.
In the case of `CCCCCCCCCCc1cc2cnc(OCCC)nc2o1` [Cf2303, 6-Decyl-2-propoxy-furo[2,3-d]pyrimidine], the EC50 in data set [1] (setting [5]) came out at 2.1 µM; in data set [2] (Table 2, 7 days post infection), 2.5 µM. The same molecule came in with a half-maximal cytotoxic concentration (CC50) in data set [3] (Table 2) of 126 µM.
In the case of `CCCCCCCCCCc1cc2cn(C3CCCO3)c(=O)nc2o1` (stereo not shown) [Cf2249, 6-Decyl-3-(tetrahydro-furan-2′-yl)-2,3-dihydrofuro[2,3-d]pyrimidin-2-one], the EC50 in data set [1] (setting [4]) is 50 µM; in data set [2] (Table 1, 7 days post infection), more than 50 µM. The molecule further returned a CC50 in data set [3] (Table 1) of more than 200 µM.
The corresponding values for `CCCCCCCCCCc1cc2cn(C3CCOC3)c(=O)nc2o1` (stereo not shown) [Cf2276, 6-Decyl-3-(tetrahydro-furan-3-yl)-3H-furo[2,3-d]pyrimidin-None] are 10 µM, 20 µM and 148 µM.
`CCCCCCc1cc2cn(C)c(=O)nc2o1` [Cf2344, 6-Hexyl-3-methyl-3H-furo[2,3-d]pyrimidin-2-one]: the EC50 in data set [1] (setting [4]) was determined as 20 µM; in data set [2] (Table 1, 7 days post infection) it was 18 µM.
As to `CCCCCCCCCCc1cc2cnc(OCCCC)nc2o1` [Cf2305, 2-Butoxy-6decyl-furo[2,3-a]pyrimidine], the EC50 came out at 2.7 µM in data set [1] (setting [5]) and 3.9 µM in data set [2] (Table 2, 7 days post infection). This molecule came in with a CC50 in data set [3] (Table 2) of more than 200 µM.
Regarding `CCCCCCCCCCc1cc2cn(CCC)c(=O)nc2o1` [Cf2304, 6-Decyl-3-propyl-3H-furo[2,3-d]pyrimidin-2-one], the EC50 in data set [1] (setting [4]) is 8 µM; in data set [2] (Table 1, 7 days post infection) it was 40 µM. The cytotoxic concentration (CC50) in data set [3] (Table 1) was more than 200 µM.
As for `CCCCCCCCCCc1cc2cnc(OCc3ccccc3)nc2o1` [Cf2307, 2-Benzyloxy-6-decyl-furo[2,3-d]pyrimidine], the EC50 turned out to be 1.1 µM in data set [1] (setting [5]) and 3.3 µM in data set [2] (Table 2, 7 days post infection). In data set [3] (Table 2), this molecule yielded a CC50 of more than 200 µM.
`CCCCCCc1cc2cn(Cc3ccccc3)c(=O)nc2o1` [Cf2349, 3-Benzyl-6-hexyl-3H-furo[2,3-d]pyrimidin-2-one]: the EC50 is more than 200 µM in data set [1] (setting [4]) and more than 200 µM in data set [2] (Table 1, 7 days post infection).
In the case of `CCCCc1cc2cn(C3CCCC3)c(=O)nc2o1` [Cf2158, 6-Butyl-3-cyclopentyl-3H-furo[2,3-d]pyrimidin-2-one], the EC50 in data set [1] (setting [4]) was more than 50 µM; in data set [2] (Table 1, 7 days post infection), more than 50 µM.
`CCCCCCc1cc2cnc(OCc3ccccc3)nc2o1` [Cf2348, 2-Benzyloxy-6-hexyl-furo[2,3-d]pyrimidine]: the EC50 in data set [1] (setting [5]) is more than 3.6 µM; in data set [2] (Table 2, 7 days post infection), more than 200 µM.
As for `CCCCCCCCCCc1cc2cnc(OCC3CCCCC3)nc2o1` [Cf2274, 2-Cyclohexylmethoxy-6-decyl-furo[2,3-d]pyrimidine], the EC50 is 2.9 µM in data set [1] (setting [5]) and 4.4 µM in data set [2] (Table 2, 7 days post infection). For the same molecule, in data set [3] (Table 2), the cytotoxic concentration (CC50) was more than 200 µM.
The corresponding values for `CCCCCCCCCCc1cc2cnc(OC(CC)CC)nc2o1` [Cf2252] are 10 µM, 16 µM and 127 µM.
